Results from patent US11708348B2, “Protease inhibitors for treatment of coronavirus infections” (The Scripps Research Institute, priority 2021, dated 2023).

System: SARS-CoV-2 strain USA-WA1/2020
Assay: microbe, parasite or virus in culture
Assay type: cell-based
Settings: Severe acute respiratory syndrome coronavirus 2, HeLa-ACE2, 24 h, HeLa-ACE2 cells, SARS-CoV-2 infection, 24 h; class symbols; read-out: EC50, uM (Hela)

Row | SMILES | EC50 [µM]
1 | O=C(NC1CC(F)(F)C1)C(=O)N[C@@H](CC1CC1)C(=O)N[C@@H](C[C@@H]1CCNC1=O)C(=O)COC(F)(F)F [Compound 176, N1-((S)-3-cyclopropyl-1-oxo-1-(((S)-3-oxo-1-((S)-2-oxopyrrolidin-3-yl)-4-(trifluoromethoxy)butan-2-yl)amino)propan-2-yl)-N2-(3,3-difluorocyclobutyl)-oxalamide] | < 0.05
2 | CC(C)C[C@H](NC(=O)c1ccc2c(c1)OCO2)C(=O)N[C@@H](C[C@@H]1CCNC1=O)C(=O)COC(F)(F)F [Compound 168, N-((S)-4-methyl-1-oxo-1-(((S)-3-oxo-1-((S)-2-oxopyrrolidin-3-yl)-4-(trifluoromethoxy)butan-2-yl)amino)pentan-2-yl)benzo[d][l,3]dioxole-5-carboxamide] | 0.05 to 0.2
3 | COCC1(NC(=O)C(=O)N[C@@H](CC(C)C)C(=O)N[C@@H](C[C@@H]2CCNC2=O)C(=O)COC(F)(F)F)CC1 [Compound 262, Nl-(1-(methoxymethyl)-cyclopropyl)-N2-((S)-4-methyl-1-oxo-1-(((S)-3-oxo-1-((S)-2-oxopyrrolidin-3-yl)-4-(trifluoromethoxy)butan-2-yl)amino)pentan-2-yl)oxalamide] | 0.05 to 0.2
4 | CC(C)(O)C(=O)N1C[C@H]2[C@@H]([C@H]1C(=O)N[C@@H](C[C@@H]1CCNC1=O)C(=O)COC(F)(F)F)C2(C)C [Compound 351, (1R,2S,5S)-3-(2-hydroxy-2-methylpropanoyl)-6,6-dimethyl-N-((S)-3-oxo-1-((S)-2-oxopyrrolidin-3-yl)-4-(trifluoromethoxy)butan-2-yl)-3-azabicyclo-[3.1.0]hexane-2-carboxamide] | 0.05 to 0.2
5 | CC1(NC(=O)C(=O)N[C@@H](CC2CC2)C(=O)N[C@@H](C[C@@H]2CCNC2=O)C(=O)COC(F)(F)F)CC(F)(F)C1 [Compound 220, N1-((S)-3-cyclopropyl-1-oxo-1-(((S)-3-oxo-1-((S)-2-oxopyrrolidin-3-yl)-4-(trifluoromethoxy)butan-2-yl)amino)propan-2-yl)-N2-(3,3-difluoro-1-methylcyclobutyl)-oxalamide] | < 0.05
6 | CC(C)C[C@H](NC(=O)C(=O)Nc1ccc(F)cc1)C(=O)N[C@@H](C[C@@H]1CCNC1=O)C(=O)COc1c(F)c(F)cc(F)c1F [Compound 38, N1-(4-fluorophenyl)-N2-((S)-4-methyl-1-oxo-1-(((S)-3-oxo-1-((S)-2-oxopyrrolidin-3-yl)-4-(2,3,5,6-tetra-fluorophenoxy)butan-2-yl)amino)pentan-2-yl)oxalamide] | < 0.05
7 | CC(C)C[C@H](NC(=O)c1ncc(-c2ccccc2)[nH]1)C(=O)N[C@@H](C[C@@H]1CCNC1=O)C(=O)COC(F)(F)F [Compound 224, N-((S)-4-methyl-1-oxo-1-(((S)-3-oxo-1-((S)-2-oxopyrrolidin-3-yl)-4-(trifluoromethoxy)butan-2-yl)amino)pentan-2-yl)-5-phenyl-1H-imidazole-2-carboxamide] | < 0.05
8 | CC(C)C[C@H](NC(=O)c1cn2ncccc2n1)C(=O)N[C@@H](C[C@@H]1CCNC1=O)C(=O)COC(F)(F)F [Compound 203, N-((S)-4-methyl-1-oxo-1-(((S)-3-oxo-1-((S)-2-oxopyrrolidin-3-yl)-4-(trifluoromethoxy)butan-2-yl)amino)pentan-2-yl)imidazo[1,2-b]pyridazine-2-carboxamide] | 0.05 to 0.2
9 | CC(C)C[C@H](NC(=O)[C@H](O)c1cccc(Cl)c1)C(=O)N[C@@H](C[C@@H]1CCNC1=O)C(=O)COc1c(F)c(F)cc(F)c1F [Compound 146, (S)-2-((R)-2-(3-chlorophenyl)-2-hydroxyacetamido)-4-methyl-N-((S)-3-oxo-1-((S)-2-oxopyrrolidin-3-yl)-4-(2,3,5,6-tetrafluorophenoxy)butan-2-yl)pentanamide] | 0.05 to 0.2

Same assay, conditions: Severe acute respiratory syndrome coronavirus 2, HeLa-ACE2, 24 h, HeLa-ACE2 cells, SARS-CoV-2 infection, 24 h; given as bound; read-out: EC50, uM (Hela)

Row | SMILES | EC50 [µM]
10 | Cc1cccnc1NC(=O)C(=O)N1C[C@@H]2CCC[C@@H]2[C@H]1C(=O)N[C@@H](C[C@@H]1CCNC1=O)C(=O)COC(F)(F)F [Compound 550, (1S,3aR,6aS)-2-(2-((3-methylpyridin-2-yl)amino)-2-oxoacetyl)-N-((S)-3-oxo-1-((S)-2-oxopyrrolidin-3-yl)-4-(trifluoromethoxy)butan-2-yl)octahydrocyclo-penta[c]pyrrole-1-carboxamide] | > 1
11 | O=C(Nc1ccccc1F)C(=O)N1C[C@H]2C[C@]1(C(=O)N[C@@H](C[C@@H]1CCNC1=O)C(=O)COC(F)(F)F)C2 [Compound 562, (1 s,4R)-2-(2-((2-fluorophenyl)amino)-2-oxoacetyl)-N-((S)-3-oxo-1-((S)-2-oxopyrrolidin-3-yl)-4-(trifluoromethoxy)butan-2-yl)-2-azabicyclo-[2.1.1]hexane-1-carboxamide] | > 1

Same assay, conditions: Severe acute respiratory syndrome coronavirus 2, HeLa-ACE2, 24 h, HeLa-ACE2 cells, SARS-CoV-2 infection, 24 h; read-out: EC50, uM (Hela)

Row | SMILES | EC50 [µM]
12 | CC(C)(C)C[C@H](NC(=O)c1cnc(C(F)(F)F)s1)C(=O)N[C@@H](C[C@@H]1CCNC1=O)C(=O)COC(F)(F)F [Compound 538, N-((S)-4,4-dimethyl-1-oxo-1-(((S)-3-oxo-1-((S)-2-oxopyrrolidin-3-yl)-4-(trifluoromethoxy)butan-2-yl)amino)pentan-2-yl)-2-(trifluoromethyl)-thiazole-5-carboxamide] | < 0.05
13 | O=C(Nc1cc(F)ccc1F)C(=O)N1CC2(CC2)C[C@H]1C(=O)N[C@@H](C[C@@H]1CCNC1=O)C(=O)COC(F)(F)F [Compound 602, (S)-5-(2-((2,5-difluorophenyl)amino)-2-oxoacetyl)-N-((S)-3-oxo-1-((S)-2-oxopyrrolidin-3-yl)-4-(trifluoromethoxy)butan-2-yl)-5-azaspiro[2.4]heptane-6-carboxamide] | < 0.05
14 | Cc1ccccc1NC(=O)C(=O)N[C@@H](CC1CC1)C(=O)N[C@@H](C[C@@H]1CCNC1=O)C(=O)COC(F)(F)F [Compound 507, N1-((S)-3-cyclopropyl-1-oxo-1-(((S)-3-oxo-1-((S)-2-oxopyrrolidin-3-yl)-4-(trifluoromethoxy)butan-2-yl)amino)propan-2-yl)-N2-(o-tolyl)oxalamide] | < 0.05
15 | O=C1NCC[C@H]1C[C@H](NC(=O)[C@@H]1CC2(CC2)CN1C(=O)C(O)(c1ccccc1)C(F)(F)F)C(=O)COC(F)(F)F (stereo partly drawn) [Compound 681, (6S)-N-((S)-3-oxo-1-((S)-2-oxopyrrolidin-3-yl)-4-(trifluoromethoxy)butan-2-yl)-5-(3,3,3-trifluoro-2-hydroxy-2-phenylpropanoyl)-5-azaspiro[2.4]heptane-6-carboxamide] | 0.05 to 0.2
16 | O=C(Nc1ccccc1F)C(=O)N1[C@H](C(=O)N[C@@H](C[C@@H]2CCNC2=O)C(=O)COC(F)(F)F)C[C@@H]2C[C@@H]21 [Compound 539, (1S,3S,5S)-2-(2-((2-fluorophenyl)amino)-2-oxoacetyl)-N-((S)-3-oxo-1-((S)-2-oxopyrrolidin-3-yl)-4-(trifluoromethoxy)butan-2-yl)-2-azabicyclo-[3.1.0]hexane-3-carboxamide] | 0.05 to 0.2
17 | COc1cccc2[nH]c(C(=O)N3CC4(CC4)C[C@H]3C(=O)N[C@@H](C[C@@H]3CCNC3=O)C(=O)COC(F)(F)F)cc12 [Compound 605, (S)-5-(4-methoxy-1H-indole-2-carbonyl)-N-((S)-3-oxo-1-((S)-2-oxopyrrolidin-3-yl)-4-(trifluorometh-oxy)butan-2-yl)-5-azaspiro[2.4]heptane-6-carboxamide] | < 0.05
18 | CC1(NC(=O)C(=O)N2[C@H]3CC[C@H](C3)[C@H]2C(=O)N[C@@H](C[C@@H]2CCNC2=O)C(=O)COC(F)(F)F)CC1 [Compound 546, (1S,3S,4R)-2-(2-((l-methylcyclopropyl)-amino)-2-oxoacetyl)-N-((S)-3-oxo-1-((S)-2-oxopyrrolidin-3-yl)-4-(trifluoromethoxy)butan-2-yl)-2-azabicyclo-[2.2.1]heptane-3-carboxamide] | 0.2 to 0.5
19 | CNC(=O)N[C@H](CC(C)C)C(=O)N1CC2(CC2)C[C@H]1C(=O)N[C@@H](C[C@@H]1CCNC1=O)C(=O)COC(F)(F)F [Compound 435, (S)-5-((methylcarbamoyl)-D-leucyl)-N—((S)-3-oxo-1-((S)-2-oxopyrrolidin-3-yl)-4-(trifluoromethoxy)butan-2-yl)-5-azaspiro[2.4]heptane-6-carboxamide] | 0.2 to 0.5
20 | CC1(C)CCC(O)(C(=O)N2CC3(CC3)C[C@H]2C(=O)N[C@@H](C[C@@H]2CCNC2=O)C(=O)COC(F)(F)F)CC1 [Compound 633, (S)-5-(l-hydroxy-4,4-dimethylcyclohexane-1-carbonyl)-N-((S)-3-oxo-1-((S)-2-oxopyrrolidin-3-yl)-4-(trifluoromethoxy)butan-2-yl)-5-azaspiro[2.4]heptane-6-carboxamide] | < 0.05
21 | [2H]C([2H])([2H])CCC(=O)N1CC2(CC2)C[C@H]1C(=O)N[C@@H](C[C@@H]1CCNC1=O)C(=O)COC(F)(F)F [Compound 764, (S)-5-(butanoyl-4,4,4-d3)-N-((S)-3-oxo-1-((S)-2-oxopyrrolidin-3-yl)-4-(trifluoromethoxy)butan-2-yl)-5-azaspiro[2.4]heptane-6-carboxamide] | 0.05 to 0.2
22 | O=C1NCC[C@H]1C[C@H](NC(=O)[C@@H]1[C@H]2CCC[C@H]2CN1C(=O)c1noc2ccc(F)cc12)C(=O)COC(F)(F)F [Compound 614, (1S,3aR,6aS)-2-(5-fluorobenzo[d]isoxazole-3-carbonyl)-N-((S)-3-oxo-1-((S)-2-oxopyrrolidin-3-yl)-4-(trifluoromethoxy)butan-2-yl)octahydrocyclopenta[c]pyrrole-1-carboxamide] | < 0.05
23 | O=C1NCC[C@H]1C[C@H](NC(=O)[C@@H]1CC2(CC2)CN1C(=O)[C@@H](O)c1ccccc1)C(=O)COC(F)(F)F [Compound 415, (S)-5-((S)-2-hydroxy-2-phenylacetyl)-N-((S)-3-oxo-1-((S)-2-oxopyrrolidin-3-yl)-4-(trifluoromethoxy)butan-2-yl)-5-azaspiro[2.4]heptane-6-carboxamide] | 0.05 to 0.2
